The record followed here is patent US6224850A, “Antiwrinkle cosmetic/pharmaceutical compositions comprising iridaceae extracts” (Societe L'Oreal S.A., priority 1996, dated 2001).

One may read the IC50 as the midpoint of a concentration-inhibition curve.

In one test the target is GABA-A receptor. Format: binding, rat. The following applies: dose displacing 50% of tritiated muscimol; nonlabelled muscimol.
For test [1], the system named is convulsions induced by strychnine in mice. The following applies: mouse, in vivo.
The target in a further test is Glycine receptor (Rattus norvegicus, UniProt P07727). In words: biochemical. Type of test: binding.
Glycine receptor, sequence (P07727 29-457): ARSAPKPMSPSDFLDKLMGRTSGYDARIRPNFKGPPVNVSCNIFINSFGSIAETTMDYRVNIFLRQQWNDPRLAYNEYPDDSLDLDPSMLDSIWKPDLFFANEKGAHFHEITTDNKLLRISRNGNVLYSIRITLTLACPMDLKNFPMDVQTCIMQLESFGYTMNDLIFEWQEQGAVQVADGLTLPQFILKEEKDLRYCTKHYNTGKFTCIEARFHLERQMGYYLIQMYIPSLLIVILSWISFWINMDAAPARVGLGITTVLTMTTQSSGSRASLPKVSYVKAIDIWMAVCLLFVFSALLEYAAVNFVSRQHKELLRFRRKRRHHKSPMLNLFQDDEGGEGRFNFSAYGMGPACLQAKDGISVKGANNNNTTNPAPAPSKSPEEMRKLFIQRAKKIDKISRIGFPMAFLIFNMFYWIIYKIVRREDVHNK
Glycine receptor, sequence (P20781 23-496, further chain): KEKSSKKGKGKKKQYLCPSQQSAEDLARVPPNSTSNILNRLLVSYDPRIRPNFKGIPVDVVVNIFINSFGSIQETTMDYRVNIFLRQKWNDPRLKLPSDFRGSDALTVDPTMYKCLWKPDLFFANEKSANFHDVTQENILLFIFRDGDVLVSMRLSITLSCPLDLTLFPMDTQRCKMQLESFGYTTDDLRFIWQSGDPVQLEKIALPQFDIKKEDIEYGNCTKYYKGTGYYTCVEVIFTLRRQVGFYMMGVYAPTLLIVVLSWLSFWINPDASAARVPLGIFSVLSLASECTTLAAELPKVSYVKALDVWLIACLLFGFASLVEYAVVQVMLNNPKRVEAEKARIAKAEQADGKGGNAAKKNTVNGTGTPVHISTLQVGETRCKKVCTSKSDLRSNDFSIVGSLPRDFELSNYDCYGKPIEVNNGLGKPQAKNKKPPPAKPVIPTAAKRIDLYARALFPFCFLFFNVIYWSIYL

Compound `NCc1cc(=O)[nH]o1` [muscimol] returned an IC50 at GABA-A receptor of 8.2 nM.

Turning to `CN1C(=O)CN=C(c2ccccc2)c2cc(Cl)ccc21` [Diazepam], in test [1], the “Delay in the appearance of the convulsions” value is recorded as 3431 and the “Variation (%) of delay” value is “+1190”.

On Glycine receptor, `O=C1C[C@@H]2OCC=C3CN4CC[C@]56c7ccccc7N1[C@H]5[C@H]2[C@H]3C[C@H]46` [strychnine] registered an IC50 of 26.9 nM.
